The assay is described as follows: Cytotoxicity against human KB3-1 cells by colorimetric assay. Type of assay: functional, cell-based. To be noted: KB 3-1.

`CCCCCCC1CCCC(C2CCC([C@H]3CC[C@H]([C@H](O)CCCCCCCCCCCCC4=C[C@H](C)OC4=O)O3)O2)O1` (some centres not stated) [CHAMUVARININ] registered an IC50 of 0.8 nM.

In turn, `CCCCCC[C@H](O)CCC[C@H](O)[C@H]1CC[C@H]([C@H]2CC[C@H]([C@H](O)CCCCCCCCCCCCC3=C[C@H](C)OC3=O)O2)O1` [SQUAMOCIN] showed an IC50 of 0.003 nM.

For the origin of these results see ChEMBL document CHEMBL1151237, “Chamuvarinin, an acetogenin bearing a tetrahydropyran ring from the roots of Uvaria chamae” (J Nat Prod, 2004).
